Data as given in ChEMBL document CHEMBL1201862, “PubChem BioAssay data set” (2004).
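Step 1: Grow cells in 96-well plates. Step 2: Expose to compound for 48 hours at 5 concentrations. Step 3: Interpolate endpoints linearly; if unreached, use highest concentration. GI50 is the concentration that inhibits growth by half.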 Active and inactive are the calls of the source. Rule as the data show it: active = GI50 up to about 1.1 µM and inactive = higher.

Key:
Test in all cases: inhibition of tumour cell growth, NCI panel, 48 h
DMS-114 = system: DMS-114
DMS-273 = system: DMS-273
HOP-18 = system: HOP-18
KM-20L2 = system: KM-20L2
LXFL 529 = system: LXFL 529
M19-MEL = system: M19-MEL
SNB-78 = system: SNB-78
RXF 631 = system: RXF 631
XF498 = system: XF498

SMILES	GI50 (DMS-114)	GI50 (DMS-273)	GI50 (HOP-18)	GI50 (KM-20L2)	GI50 (LXFL 529)	GI50 (M19-MEL)	GI50 (SNB-78)	GI50 (RXF 631)	GI50 (XF498)
O=C(/C=C/c1ccccc1)CC(=O)CCC(=O)Nc1ccc(Cl)cc1	57 µM (inactive)	52.7 µM (inactive)	> 100 µM (inactive)	9.73 µM (inactive)	6.75 µM (inactive)	71 µM (inactive)	> 100 µM (inactive)		
CC(N)Cc1cccc(C(F)(F)F)c1 (stereo unspecified)	> 100 µM (inactive)	> 100 µM (inactive)	> 100 µM (inactive)	> 100 µM (inactive)	> 100 µM (inactive)	> 100 µM (inactive)	> 100 µM (inactive)	> 100 µM (inactive)	
C=C(C)C(O)CCC1(C)C=Cc2c(c(C)cc3c2[nH]c2ccccc23)O1 (stereo unspecified)	11.6 µM (inactive)			3.99 µM (inactive)	8.05 µM (inactive)	13.2 µM (inactive)	8.77 µM (inactive)		6.67 µM (inactive)
N#CC12C3C4CC5C6C4C1C6C(O)(C53)N2Cc1ccccc1 (stereo unspecified)	> 100 µM (inactive)	> 100 µM (inactive)	> 100 µM (inactive)	> 100 µM (inactive)	> 100 µM (inactive)			> 100 µM (inactive)	> 100 µM (inactive)
CC(=O)Nc1ccc(C(=O)NN2C(=O)C(Cl)C2c2ccccc2)cc1 (stereo unspecified)		> 100 µM (inactive)		> 100 µM (inactive)	> 100 µM (inactive)	> 100 µM (inactive)	> 100 µM (inactive)		
CCCCCCCCCCCCCCCCCC(CCCCCCCCCCCCCCCCC)OP(=O)(O)O	> 100 µM (inactive)	> 100 µM (inactive)	> 100 µM (inactive)	> 100 µM (inactive)	> 100 µM (inactive)	> 100 µM (inactive)	> 100 µM (inactive)		
CC(O)CCCOC(c1ccccc1)(c1ccccc1)c1ccccc1 (stereo unspecified)	13.2 µM (inactive)			10.4 µM (inactive)	14.7 µM (inactive)	17 µM (inactive)	14.7 µM (inactive)		14.7 µM (inactive)
C[C@@]12[Se]c3ccccc3[C@]1(C)[Se]c1ccccc12	2.12 µM (inactive)	3.61 µM (inactive)	> 100 µM (inactive)	> 100 µM (inactive)	> 100 µM (inactive)	5.68 µM (inactive)			
Cn1c2ccccc2c2cc(-c3ccccc3)c3c(c21)C(=O)C=CC3=O	9.38 µM (inactive)	19.7 µM (inactive)			6.68 µM (inactive)	20.1 µM (inactive)	> 42.1 µM (inactive)	30.3 µM (inactive)	17.8 µM (inactive)
CCC(C)(O)c1cn(-c2ccc(S(=O)(=O)O)cc2)nn1 (stereo unspecified)	> 100 µM (inactive)	> 100 µM (inactive)	> 100 µM (inactive)	> 100 µM (inactive)	> 100 µM (inactive)	> 100 µM (inactive)	> 100 µM (inactive)	> 100 µM (inactive)	> 100 µM (inactive)
CC1=CC[C@@H](C(C)(C)O)C[C@@H]1O	> 5000 µM (inactive)			> 5000 µM (inactive)	> 5000 µM (inactive)	> 5000 µM (inactive)	> 5000 µM (inactive)	> 5000 µM (inactive)	> 5000 µM (inactive)
CC(=O)C1=C(O)C2C3c4c[nH]c5cccc(c45)CC3C(C)(C)N2C1=O (stereo unspecified)	20.4 µM (inactive)	27.5 µM (inactive)	21.2 µM (inactive)	31.6 µM (inactive)	78.3 µM (inactive)	> 100 µM (inactive)	> 100 µM (inactive)		51.4 µM (inactive)
CN(C)CCNC(=O)c1cccc2c(Nc3ccc(S(N)(=O)=O)cc3)c3ccccc3nc12	0.461 µM (active)	0.783 µM (active)	2.71 µM (inactive)	2.71 µM (inactive)	0.333 µM (active)		1.82 µM (inactive)	1.4 µM (inactive)	0.209 µM (active)
